The nature of data set [1]: Inhibition of IL1 beta production in glia cells. Type of data set: functional, cell-based. The settings on record: Homo sapiens.
A short description of data set [2]: Aqueous solubility of the compound. Type of data set: physicochemical. The settings on record: buffer.
Data set [3] can be described thus: Brain penetration, LogBB of the compound. To be noted: read-out: logBB (converted). Format: ADME.
Another data set concerns Cavia porcellus. As to the kind of experiment: Cardiotoxicity in guinea pig assessed as prolongation of QTc interval at 15 mg/kg, po. The settings on record: in vivo. Type of data set: toxicity, organism-based. Further details: dose 15 mg/kg, route oral.
Data set [4] is filed under the species Mus musculus. Kind of data set: Attenuation of hippocampal dependent behavioral deficits in mouse by Y maze test. To be noted: Hippocampus. Type of data set: functional, organism-based.
Data set [5] relates to Mus musculus. As to the kind of experiment: Suppression of IL1-beta production in human amyloid-beta induced mouse injury model at […], po for 2 weeks after 60 days of injury. Also on record: dose 2.5 mg/kg. Format: functional, organism-based.
The species entered for data set [6] is Mus musculus. Kind of data set: Prevention of loss of synaptic protein synaptophytsin in human amyloid-beta induced mouse injury model. Format: functional, organism-based.
Data set [7] has as its system Mus musculus. As to the kind of experiment: Reduction of F4/80 positive microglia in human amyloid-beta induced mouse injury model at […], po for 2 weeks after 60 days of injury. Format: functional, organism-based. Also on record: dose 2.5 mg/kg.
Data set [8] is filed under the species Mus musculus. Kind of data set: Prevention of loss of synaptic protein PSD95 in human amyloid-beta induced mouse injury model. Format: functional, organism-based.
The test system of data set [9] is Mus musculus. As to the kind of experiment: Suppression of TNFalpha production in human amyloid-beta induced mouse injury model at […], po for 2 weeks after 60 days of injury. Type of data set: functional, organism-based. Also on record: dose 2.5 mg/kg.
Data set [10] deals with Mus musculus. As to the kind of experiment: Reduction of GFAP-positive astrocytes in human amyloid-beta induced mouse injury model at […], po for 2 weeks after 60 days of injury. Further details: dose 2.5 mg/kg. Format: functional, organism-based.
Data set [11] deals with Mus musculus. As to the kind of experiment: Suppression of S100B production in human amyloid-beta induced mouse injury model at […], po for 2 weeks after 60 days of injury. Further details: dose 2.5 mg/kg. Type of data set: functional, organism-based.
Data set [12] in a line: Chemical stability in water. Format: physicochemical. The settings on record: buffer.
Data set [13] is described as follows: Chemical stability in dilute base after 5 days. Format: physicochemical. To be noted: read-out: Stability.
A short description of data set [14]: Partition coefficient, log P of the compound. Format: physicochemical. The settings on record: octanol/water.
The nature of data set [15]: Chemical stability in hydrogen peroxide upto 48 hrs. Format: physicochemical. The settings on record: read-out: Stability.
For the next data set, the species on record is Homo sapiens. Kind of data set: Suppression of proinflammatory cytokine production in glia cells. Format: functional, cell-based.

Structures are written as SMILES. In brackets after ≈: the same amount, converted by molar mass. Activity calls are given as the source filed them. The calls are words filed in the database; no cut-off is given here.

As to `Clc1cc(-c2ccccc2)nnc1N1CCN(c2ncccn2)CC1`, half-maximal inhibition in data set [1] (IC50) required 9.5 µM.

For `Cc1cc(-c2ccccc2)nnc1N1CCN(c2ncccn2)CC1` [MINOZAC FREE BASE], in data set [2], the Solubility (commonly how much of the substance goes into solution per volume) is 16 ng/mL (≈ 0.0481 µM). The IC50 (in general, the concentration that inhibits the measured activity by half) in data set [1] came to 8.3 µM. The Kp in data set [3] was 2.82. Moreover, the Activity entry in the data set on Cavia porcellus is given as “Non-toxic”.

In the case of `Cc1cc(-c2ccccc2)nnc1N1CCN(c2ncccn2)CC1`, the result in the data set listed under Mus musculus [4], in the data set on Mus musculus [5], in the data set listed under Mus musculus [6], in the data set on Mus musculus [7], in the data set filed under Mus musculus [8] and with Mus musculus [9] was Active. Besides, the outcome in the data set on Mus musculus [10] and in the data set on Mus musculus [11] was Active.

`Cc1cc(-c2ccccc2)nnc1N1CCN(c2ccccc2)CC1`: in [1], it took 15.5 µM to reach half-maximal inhibition (IC50).

As to `Cc1cc(-c2ccccc2)nnc1N1CCN(C2CCCCC2)CC1`, the IC50 in [1] came out at 31.4 µM.

In data set [1], `Cc1cc(-c2ccccc2)nnc1N1CCN(c2cnccn2)CC1` came in with an IC50 of 46.1 µM. The IC50 values of the last two molecules are within 1.5-fold of each other.

On to `c1ccc(-c2cc(-c3ccccc3)c(N3CCN(c4ncccn4)CC3)nn2)cc1` [listing 1 of 2 here], for which, in data set [2], the Solubility was under 2 ng/mL.

In turn, `Cc1cc(-c2ccccc2)nnc1N1CCN(C)CC1` came in with an IC50 in [1] of 48.9 µM.

In data set [12], `Cc1cc(-c2ccccc2)nnc1N1CCN(c2ncccn2)CC1.Cl.O` gave a Stability of under 5%. Besides, the remaining at 120 h in data set [13] is 53%. In data set [14], the logP (in general, a log measure of how a compound divides between an organic and an aqueous phase) turned out to be 2.3. The remaining at 48 h in data set [15] is under 10%.

Consider `Cc1cc(-c2ccccc2)nnc1NCCN1CCOCC1`, for which the result in the data set filed under Homo sapiens was inactive.

Take `c1ccc(-c2cc(-c3ccccc3)c(N3CCN(c4ncccn4)CC3)nn2)cc1` [listing 2 of 2 here]: in data set [14], the logP worked out at 2.7.

Source of the values: ChEMBL document CHEMBL1146276, “Development of a novel therapeutic suppressor of brain proinflammatory cytokine up-regulation that attenuates synaptic dysfunction and behavioral deficits” (Bioorg Med Chem Lett, 2007).
